From ChEMBL document CHEMBL4673244 (J Med Chem, 2020)

Legend:
in vitro [1] = conditions: human, hepatocytes
in vitro [2] = conditions: dog, MDCK
physchem = conditions: buffer, pH 7.4
in vitro [3] = conditions: human, liver microsomes

Q: For `C[C@H]1[C@H](O)CN1c1nc(N2C[C@@H]3[C@@H](CC(=O)O)[C@@H]3C2)cc(C(F)(F)F)n1`, which hepatocyte CLint (in vitro [1]) is on record?
A: Its hepatocyte CLint is < 2 µL/min/1e6 cells.

Q: What about the Papp (in vitro [2]) of the same compound?
A: Its Papp is 1.4 ×10⁻⁶ cm/s.

Q: What about the logD (physchem) of the same compound?
A: The logD was 0.1.

Q: With `C[C@H]1[C@H](O)CN1c1nc(N2C[C@@H]3[C@H](C2)[C@H]3C(=O)O)cc(C(F)(F)F)c1C#N` as the compound, how does the logD (physchem) read?
A: The logD was 0.6.

Q: With `C[C@H]1[C@H](O)CN1c1nc(N2C[C@@H]3[C@@H](CC(=O)O)[C@@H]3C2)cc(C(F)(F)F)c1C#N` as the compound, how does the hepatocyte CLint (in vitro [1]) read?
A: Its hepatocyte CLint is 26 µL/min/1e6 cells.

Q: And the Papp (in vitro [2])?
A: Its Papp is 5.6 ×10⁻⁶ cm/s.

Q: And the microsomal CLint (in vitro [3])?
A: The microsomal CLint was < 11 µL/min/mg.

Q: What about the logD (physchem) of the same compound?
A: The logD was 1.

Q: With `C[C@H]1[C@H](O)CN1c1nc(N2C[C@@H]3[C@@H](CO)[C@@H]3C2)cc(C(F)(F)F)c1C#N` as the compound, how does the logD (physchem) read?
A: The logD was 3.3.

Q: Which Papp (in vitro [2]) does the source give for `C[C@]1(O)CCN(c2nc(N3C[C@H](O)[C@@H](O)C3)cc(C(F)(F)F)c2C#N)C1` here?
A: The Papp was 3.5 ×10⁻⁶ cm/s.

Q: What about the microsomal CLint (in vitro [3]) of the same compound?
A: Its microsomal CLint is < 13 µL/min/mg.

Q: What about the logD (physchem) of the same compound?
A: Its logD is 2.2.
